Consider 5 molecules from patent publication US20150045610A1, “METHOD OF MODIFYING SPERMATOGENESIS, SPERMIOGENESIS AND/OR FERTILITY IN MAMMALS” (Monell Chemical Senses Center, priority 2012, published 2015).

One series deals with T1, humanized mhT1R3 (Homo sapiens, UniProt Q7RTX0, A109T/A120V/A176D/A197V/A198V/A228S/A231N/A248T/A280V/A282S/A302S/A412V/A417V/A46T/A537T/C375D/D124S/D249S/D250G/D364H/D419E/D470T/D491G/D88A/DEL352-352/DEL488-489/E172D/E199T/E203N/E217D/E356N/E45S/E481Q/E505D/E525K/E545Q/F540P/F555L/G168S/G205S/G311T/G314N/G355L/G360D/G414H/G438R/G439D/G463S/G50T/G542N/H261R/H278R/H281Y/H332P/I485M/I536F/INS376MLQNLSSG/K32Q/K339E/K422L/K494V/K86G/L173R/L245Q/L272V/L29F/L354S/L385Q/L433M/L458M/L483S/L71F/L74M/M151L/M315I/M318V/M31A/N285S/N386L/N532H/N68L/P112S/P246H/P335S/P416H/P420H/P441T/P60I/Q221E/Q257L/Q317R/Q330L/Q336H/Q359L/Q372R/Q418S/Q504K/Q531K/R123Q/R247D/R252Q/R291G/R30K/R357A/R443Q/R467V/R473T/R479Q/R482Q/R486Y/R498Q/R52N/R550K/R553A/R556P/R560K/R56Q/S251Q/S267K/S289H/S290H/S392A/S446A/S447E/S464P/S477T/S490P/S53Q/S559P/S58N/S67P/T195Q/T346A/T377L/T390I/T434S/T480L/T63N/V152I/V277A/V366M/V36I/V381L/V393T/V437A/V465T/V61P/W72L).
T1 construct: the extracellular domain is of mouse origin and the transmembrane and intracellular domains of human origin; mouse T1R3 extracellular domain (fusion partner replacing the human extracellular domain); expressed in transfected cells; host or cells: transgenic mice (Line 7, 9, 7c) on T1R3-null background; transgene under 13 kb T1R3 promoter, followed by IRES-eGFP
T1 sequence (Q7RTX0 with tags, fused parts or gaps L29F/R30K/M31A/K32Q/V36I/E45S/A46T/G50T/R52N/S53Q/R56Q/S58N/P60I/V61P/T63N/S67P/N68L/L71F/W72L/L74M/K86G/D88A/A109T/P112S/A120V/R123Q/D124S/M151L/V152I/G168S/E172D/L173R/A176D/T195Q/A197V/A198V/E199T/E203N/G205S/E217D/Q221E/A228S/A231N/L245Q/P246H/R247D/A248T/D249S/D250G/S251Q/R252Q/Q257L/H261R/S267K/L272V/V277A/H278R/A280V/H281Y/A282S/N285S/S289H/S290H/R291G/A302S/G311T/G314N/M315I/Q317R/M318V/Q330L/H332P/P335S/Q336H/K339E/T346A/DEL352-352/L354S/G355L/E356N/R357A/Q359L/G360D/D364H/V366M/Q372R/C375D/INS376MLQNLSSG/T377L/V381L/L385Q/N386L/T390I/S392A/V393T/A412V/G414H/P416H/A417V/Q418S/D419E/P420H/K422L/L433M/T434S/V437A/G438R/G439D/P441T/R443Q/S446A/S447E/L458M/G463S/S464P/V465T/R467V/D470T/R473T/S477T/R479Q/T480L/E481Q/R482Q/L483S/I485M/R486Y/DEL488-489/S490P/D491G/K494V/R498Q/Q504K/E505D/E525K/Q531K/N532H/I536F/A537T/F540P/G542N/E545Q/R550K/R553A/F555L/R556P/S559P/R560K limits assumed): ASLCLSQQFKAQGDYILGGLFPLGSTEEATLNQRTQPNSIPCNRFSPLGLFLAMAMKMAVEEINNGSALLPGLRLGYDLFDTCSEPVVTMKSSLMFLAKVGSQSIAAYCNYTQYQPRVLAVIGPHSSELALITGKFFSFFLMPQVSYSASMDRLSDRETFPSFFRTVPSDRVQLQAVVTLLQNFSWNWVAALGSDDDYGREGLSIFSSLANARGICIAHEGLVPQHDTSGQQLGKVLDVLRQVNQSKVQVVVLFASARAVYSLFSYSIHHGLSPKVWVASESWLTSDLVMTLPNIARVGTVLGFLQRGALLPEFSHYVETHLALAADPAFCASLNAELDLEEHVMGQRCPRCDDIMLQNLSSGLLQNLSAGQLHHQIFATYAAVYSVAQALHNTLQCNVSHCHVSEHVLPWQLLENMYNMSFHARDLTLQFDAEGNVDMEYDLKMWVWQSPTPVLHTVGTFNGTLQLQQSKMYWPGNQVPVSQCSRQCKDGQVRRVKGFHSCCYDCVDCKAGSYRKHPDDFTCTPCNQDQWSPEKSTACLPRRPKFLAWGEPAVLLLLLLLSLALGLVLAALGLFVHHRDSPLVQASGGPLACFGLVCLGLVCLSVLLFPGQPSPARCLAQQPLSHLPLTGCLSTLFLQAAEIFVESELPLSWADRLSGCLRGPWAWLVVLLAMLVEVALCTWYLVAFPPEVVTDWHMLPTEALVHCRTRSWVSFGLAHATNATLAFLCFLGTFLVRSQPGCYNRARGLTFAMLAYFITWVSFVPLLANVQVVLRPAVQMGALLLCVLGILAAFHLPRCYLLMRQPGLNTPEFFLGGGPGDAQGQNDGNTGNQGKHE
T1 sequence (Q925I4 20-843 partner): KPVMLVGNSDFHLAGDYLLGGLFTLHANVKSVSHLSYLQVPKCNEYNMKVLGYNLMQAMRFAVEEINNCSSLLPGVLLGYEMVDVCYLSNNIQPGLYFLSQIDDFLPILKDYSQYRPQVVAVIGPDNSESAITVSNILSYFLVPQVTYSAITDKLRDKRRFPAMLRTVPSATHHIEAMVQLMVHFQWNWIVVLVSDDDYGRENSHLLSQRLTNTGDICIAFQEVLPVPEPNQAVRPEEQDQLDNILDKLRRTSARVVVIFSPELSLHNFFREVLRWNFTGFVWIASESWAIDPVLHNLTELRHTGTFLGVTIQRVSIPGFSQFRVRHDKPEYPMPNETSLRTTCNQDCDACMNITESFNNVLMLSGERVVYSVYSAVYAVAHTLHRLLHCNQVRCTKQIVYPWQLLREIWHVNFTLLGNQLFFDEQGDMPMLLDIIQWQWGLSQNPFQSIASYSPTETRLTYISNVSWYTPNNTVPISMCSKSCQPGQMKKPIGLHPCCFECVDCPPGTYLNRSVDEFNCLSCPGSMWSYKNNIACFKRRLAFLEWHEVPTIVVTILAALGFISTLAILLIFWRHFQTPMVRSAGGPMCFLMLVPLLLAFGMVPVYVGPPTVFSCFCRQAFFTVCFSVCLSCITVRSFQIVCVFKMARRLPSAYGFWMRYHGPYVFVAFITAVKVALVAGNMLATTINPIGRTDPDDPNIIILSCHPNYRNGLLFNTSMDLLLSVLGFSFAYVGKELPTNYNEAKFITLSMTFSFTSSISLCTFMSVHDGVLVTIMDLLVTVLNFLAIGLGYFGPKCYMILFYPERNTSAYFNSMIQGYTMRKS
As to the kind of experiment: sweet taste preference of transgenic mice expressing humanized T1R3. Type of series: in vivo, mouse. The protocol: We used the chimeric mhT1R3 receptor to produce conventional transgenic animals. The DNA construct was injected into a genetically engineered mouse line that lacks endogenous T1R3 (T1R3KO or T1R3-null). […] We call these mice Line7.
For further crosses, we used the line 7 that has fewer copies of the transgene.
Such compounds may be produced normally in organs (e.g. in testis) or chemically synthesized.

The next series addresses T2, human T1R3 receptor (Homo sapiens, UniProt Q7RTX0).
T2 construct: expressed in transfected cells
T2 sequence (Q7RTX0 21-852): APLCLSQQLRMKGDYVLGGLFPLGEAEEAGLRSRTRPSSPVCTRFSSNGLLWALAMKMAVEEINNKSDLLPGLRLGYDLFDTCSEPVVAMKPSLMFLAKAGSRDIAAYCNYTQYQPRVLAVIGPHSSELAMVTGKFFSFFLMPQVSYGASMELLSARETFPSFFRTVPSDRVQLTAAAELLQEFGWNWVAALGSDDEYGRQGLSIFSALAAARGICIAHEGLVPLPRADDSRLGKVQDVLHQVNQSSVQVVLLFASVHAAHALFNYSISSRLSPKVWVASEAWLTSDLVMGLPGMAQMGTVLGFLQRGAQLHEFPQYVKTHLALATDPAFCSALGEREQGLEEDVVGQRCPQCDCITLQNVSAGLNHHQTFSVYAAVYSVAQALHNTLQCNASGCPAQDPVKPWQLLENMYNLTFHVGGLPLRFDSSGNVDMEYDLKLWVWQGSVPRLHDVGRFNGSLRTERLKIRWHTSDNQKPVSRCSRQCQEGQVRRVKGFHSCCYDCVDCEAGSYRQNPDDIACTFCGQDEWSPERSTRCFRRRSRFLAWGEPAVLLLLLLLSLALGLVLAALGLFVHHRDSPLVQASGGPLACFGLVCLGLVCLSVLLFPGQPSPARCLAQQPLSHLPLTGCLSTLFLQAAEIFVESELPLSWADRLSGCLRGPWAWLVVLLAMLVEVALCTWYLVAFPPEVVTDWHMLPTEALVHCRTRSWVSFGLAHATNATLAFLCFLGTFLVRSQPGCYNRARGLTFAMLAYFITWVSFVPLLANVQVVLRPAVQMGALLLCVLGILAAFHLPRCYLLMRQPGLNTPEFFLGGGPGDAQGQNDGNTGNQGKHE
T2 sequence (Q8TE23 20-839 partner): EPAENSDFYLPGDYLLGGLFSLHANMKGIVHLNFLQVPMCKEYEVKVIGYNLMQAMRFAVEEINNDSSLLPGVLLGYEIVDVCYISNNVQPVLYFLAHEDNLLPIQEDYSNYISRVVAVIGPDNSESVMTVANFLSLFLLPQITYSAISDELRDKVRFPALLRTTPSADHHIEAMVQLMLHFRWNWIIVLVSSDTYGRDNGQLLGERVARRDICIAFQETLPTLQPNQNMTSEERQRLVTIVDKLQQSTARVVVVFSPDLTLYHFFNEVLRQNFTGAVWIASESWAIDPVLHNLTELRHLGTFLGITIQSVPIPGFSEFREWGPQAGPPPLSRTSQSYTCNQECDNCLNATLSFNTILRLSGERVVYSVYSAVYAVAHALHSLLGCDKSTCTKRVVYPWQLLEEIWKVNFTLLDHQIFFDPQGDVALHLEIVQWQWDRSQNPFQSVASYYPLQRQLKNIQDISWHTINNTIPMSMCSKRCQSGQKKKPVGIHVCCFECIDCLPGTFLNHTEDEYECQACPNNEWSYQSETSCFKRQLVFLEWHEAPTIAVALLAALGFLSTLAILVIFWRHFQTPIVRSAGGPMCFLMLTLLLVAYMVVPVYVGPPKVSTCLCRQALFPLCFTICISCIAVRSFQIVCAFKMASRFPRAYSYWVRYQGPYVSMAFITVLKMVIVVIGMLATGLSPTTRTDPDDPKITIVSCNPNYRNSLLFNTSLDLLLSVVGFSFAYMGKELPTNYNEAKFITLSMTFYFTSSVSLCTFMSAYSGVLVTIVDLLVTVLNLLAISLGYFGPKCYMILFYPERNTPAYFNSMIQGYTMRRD
The note with it: cited from earlier work.

A further series deals with PDE. As to the kind of experiment: PDE pharmacological block with theophylline in drinking water.
Setting [1] is: lines 7, 9, 7c expressing humanized receptor.

As for `CC(Oc1ccc(Cl)cc1Cl)C(=O)O` (centres unmarked) [2,4-DP, 2-(2,4-dichlorophenoxyl) propionic acid], on humanized mhT1R3 (0.2 mM 2,4-DP), the “sweet preference of Line 7 mice” value is “blocked”. The “sweet responses of the transgenic animals” value at humanized mhT1R3 (setting [1]) is “even more powerful inhibitor”.
Regarding `CC(C)(Oc1ccc(CCNC(=O)c2ccc(Cl)cc2)cc1)C(=O)O` [bezafibric acid], the “T1R3 inhibition compared with PPAR-α activation” value on human T1R3 receptor is given as “comparable to their activation of PPAR-α”.
As for `OC[C@H]1O[C@H](O[C@]2(CCl)O[C@H](CCl)[C@@H](O)[C@@H]2O)[C@H](O)[C@@H](O)[C@H]1Cl` [sucralose], on humanized mhT1R3 (setting [1]), the “preference of transgenic animals for sweetener” value is reported as “modest preference”.
The same measure, in the same setting: next, `OC[C@H]1O[C@@](CO)(O[C@H]2O[C@H](CO)[C@@H](O)[C@H](O)[C@H]2O)[C@@H](O)[C@@H]1O` [sucrose]: “strong preference”.
On to `Cn1c(=O)c2[nH]cnc2n(C)c1=O` [theophylline], for which the testis pathology entry with PDE (T1R3-null animals, theophylline, compared with clofibrate-treated animals) is on record as “similar, although milder, pathology”. For the same molecule, in the series with PDE (control genotypes, theophylline alone, preliminary), the “pathology in testis after single block” value was “no detectable pathology in testis”. Also, the “adverse effect on health and behavior” value in the series on PDE (theophylline-treated animals) is “no obvious adverse effect”.
